According to patent US20250134902A1, “DRUG REPURPOSING FOR DELAYED TREATMENT OF ISCHEMIC STROKE” (UNIVESRITY OF NORTH TEXAS HEALTH SCIENCE CENTER, priority 2022, published 2025):
“Also recorded” adds a separate entry of the source.

Experiments:
[1] = tested on: rat model of focal cerebral ischemia (tMCAO); assay: Infarct and inflammation after tMCAO (TTC, Nissl, GFAP, Iba1); type: in vivo; settings: for infarct size by TTC staining: 24 hours after a single dose administered 48 hours after tMCAO
Experimental: Assessment of infarct and inflammation. For immunohistochemical assessments 6 random animals were chosen from each group by a treatment-blinded observer to reduce the chance of bias. Nissl staining was performed using thionin. Rats were deeply anesthetized with isoflurane and transcardially perfused with saline and 4% formaldehyde. Brains were removed and post fixed for 48 hours. Coronal sections were made at […] through the region of the middle cerebral artery, affixed to gelatin-coated glass slides and stained. Four sections representing Bregma levels ˜0.7, 0.2, −0.8, and −2.12 were assessed for each animal. Sections were scanned with a 4× objective using a Keyence BZ-X800 microscope and analyzed using Image J. Infarct assessment was performed by a treatment blinded observer two separate times and the average infarct was assessed by determining the extent of histologically healthy tissue using the method of Swanson (Swanson et al., 1990).
The inflammatory response to stroke was observed using immunohistochemistry for glial fibrillary acidic protein (GFAP, Neomarkers RB-087, 1:5000) to assess astrogliosis and ionized calcium binding adapter molecule 1 (Iba1 Fujifilm Wako #019-19741, 1:5000), followed by a biotinylated secondary antibody (Jackson Immuno Research #711-065-152, 1:400). […] Area of staining the striatum, cortex, and dorsal hippocampus was assessed by a treatment-blinded observer using wide-field images captured with a 4× objective using a Keyence BZ-X800. The percent area above threshold was determined with Image J. Images were processed by a treatment-blinded observer using ImageJ by converting images to 8 bits, manually outlining the areas of interest using the corpus callosum to define the boundaries of the striatum and cortex, subtracting background and subjecting the images to auto thresholding. When more than one staining run was required to process tissue, the mean gray values of a standard ROI in the contralateral cortex were used to normalize between the runs.
Rats were sacrificed under isoflurane anesthesia 2, 6, or 24 hours after dosing, and brains were removed to assess protein expression in the ischemic and contralateral cortex by immunoblotting. Brains were rapidly removed, chilled for 2 min in ice-cold saline, and sliced into 2 mm coronal slices with a brain matrix for rapid 2,3,5 triphenyltetrazolium chloride (TTC) staining. Sections were immersed in 1% TTC for 1 minute at room temperature to reveal the extent of the infarct. Cortical penumbra tissue was collected, snap frozen, and stored at −80° C. for subsequent western blotting. Protein was extracted from tissue using T-PER™ reagent with HALT protease inhibitor (Thermo-Pierce), and concentrations were determined with the PIERCE® BCA assay (Thermo-Pierce). Protein was separated on 4-20% SDS-PAGE gels (BioRad) and transferred to nitrocellulose. Blots were probed with primary antibodies for BDNF (Abcam ab226842; 1:1000) and goat anti-rabbit-HRP secondary (Thermo 32260; 1:10,000). Bands were visualized by ECL with PIERCE® SUPERSIGNAL® West Dura Femto (Thermo-Pierce) reagent using a UVP EpiChemi3. Density was assessed with Image J and normalized to β-actin (Thermo MA1-91399; 1:1000).

[2] = tested on: rat model of focal cerebral ischemia (tMCAO); assay: BrdU cell proliferation in the brain after tMCAO; type: in vivo
Experimental: Two days before tMCAO rats were trained to lick 5% sucrose from a 1 ml syringe. After behavioral assessment on Day 1 after tMCAO, rats were randomly assigned to 4 groups in a blinded fashion. Groups included sucrose Vehicle, or 45, 68 or 135 mg/kg oxeladin. Oxeladin was prepared in 5% sucrose and provided to rats from the end of a 1 ml syringe. Starting 48 hours after stroke, rats were administered treatments daily from day 3 to day 14. On days 3-14 rats were injected i.p. with 50 mg/kg bromodeoxyuridine (BrdU; Fisher Bioreagents). At the conclusion of the study, rats were euthanized under deep isoflurane anesthesia. Rats were transcardially perfused with cold saline and either decapitated for brain collection and flash freezing of brain tissue or transcardially perfused with 4% formaldehyde for immunohistochemical studies.
Actions of oxeladin on proliferation in the brain. Fourteen days after tMCAO, rats were transcardially perfused with saline and 4% formaldehyde, as described above. Brains were removed and post-fixed for 48 hours in 4% formaldehyde and then moved to phosphate buffer. Brains were blocked and serial […] coronal sections through the subventricular zone (SVZ) and dorsal hippocampus (HP) were made with a cryostat. Sections were affixed to glass slides and stored at −20° C. until processed. Sections were subjected to antigen retrieval with 10 mM sodium citrate (pH 6.0). Slides were immersed in preheated buffer, placed in a commercial vegetable steamer at 99° C. for 15 minutes and allowed to cool before processing. Immunohistochemistry was performed for the detection of BrdU with a monoclonal primary antibody (Cell Signaling Technology #5292S, 1:5000), followed by a biotinylated secondary antibody (Jackson Immuno Research #715066151, 1:400). […] In the striatum and cortex, the percent area containing BrdU positive cells was assessed in wide-field images captured with a 4× objective using a Keyence BZ-X800 as described above. In the dentate gyrus, individual BrdU+ cells were counted by a treatment-blinded observer in 3 sections per rat (n=6/group). In the SVZ, BrdU+ staining was assessed by a treatment-blinded observer using NEUROLUCIDA® software (Microbrightfield) to map positive cells on the ischemic side (n=4-6).

[3] = treatment starting 48 hours after tMCAO, 14-15 days after tMCAO, vs vehicle
[4] = 135 mg/kg starting 48 hours after tMCAO, 14-15 days after tMCAO, vs vehicle

Question: For `CCN(CC)CCOCCOC(=O)C(CC)(CC)c1ccccc1` [Oxeladin], which “infarct extent / loss of healthy brain tissue by Nissl staining” value ([1]; 14-15 days after tMCAO, whole hemisphere, cortex and striatum, vs Vehicle, P<0.05) is on record?
Answer: significantly reduced infarct extent

Question: And the “infarct size by TTC staining” value [1]?
Answer: No difference in infarct size

Question: What about the “infarct size by TTC staining” value ([1]; listed as oxeladin) of the same compound?
Answer: No significant difference in infarct size

Question: What about the “astrogliosis (GFAP staining)” value [1, 3] of the same compound?
Answer: no differences between vehicle and oxeladin treated groups; also recorded: did not alter astrogliosis

Question: And the “microgliosis (Iba1 staining)” value [1, 3]?
Answer: no differences observed

Question: What about the “BrdU staining (area of BrdU+ cells) in the cerebral cortex” value [2, 4] of the same compound?
Answer: significantly smaller area; also recorded: significantly reduced

Question: What about the “BrdU staining in the striatum” value [2, 4] of the same compound?
Answer: did not alter BrdU staining

Question: What about the “BrdU positive cells in the subventricular zone (SVZ), infarcted hemisphere” value ([2]; 135 mg/kg, 14-15 days after tMCAO, vs vehicle) of the same compound?
Answer: no differences in BrdU+ cells between treatment groups; also recorded: did not reveal a significant difference

Question: What about the “cell proliferation in the brain or SVZ after tMCAO” value ([2]; overall conclusion) of the same compound?
Answer: does not enhance cell proliferation
